According to the supplement of paper PMC11061612:

Tests used:
Experiment in all cases: combination Emax (second highest fraction inhibited in the dose matrix, 72 h); higher = more inhibition; extreme values may be limits of the assay
[1] = system: SW626 (Colorectal Carcinoma)
In short: (§1)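 After 24 hours at 37°C and 5% CO2 in 1536-well plates, cells in DMEM/F12 or RPMI plus 10% FBS received two-drug dose matrices for 72 hours. Viability came from CellTiter-Glo 2.0 luminescence and was scaled as inhibition, anchored at 0 by vehicle wells and at 1 by blank wells. Combination Emax is taken as the second-highest inhibition in the matrix, and Bliss excess as the observed combination effect less EA + EB − EA·EB, with EA and EB the single-agent effects.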

[2] = system: Hs-633T (Other Solid Carcinomas)
In short: as §1

[3] = system: OC-314 (Ovarian Carcinoma)
In short: as §1

[4] = system: HO-1-u-1 (Oral Cavity Carcinoma)
In short: as §1

[5] = system: CAPAN-1 (Pancreatic Carcinoma)
In short: as §1

[6] = system: SW1116 (Colorectal Carcinoma)
In short: as §1

[7] = system: K5 (Thyroid Gland Carcinoma)
In short: as §1

[8] = system: CTB-1 (B-Cell Non-Hodgkin's Lymphoma)
In short: as §1

[9] = system: OVCAR-8 (Ovarian Carcinoma)
In short: as §1

[10] = system: HDLM-2 (Hodgkin's Lymphoma)
In short: as §1

NCI-H28 (Mesothelioma) = system: NCI-H28 (Mesothelioma)
In short: as §1

Mewo (Melanoma) = system: Mewo (Melanoma)
In short: as §1

[11] = system: TE-4 (Esophageal Squamous Cell Carcinoma)
In short: as §1

[12] = system: LB771-HNC (Head and Neck Carcinoma)
In short: as §1

[13] = system: KARPAS-231 (B-Cell Non-Hodgkin's Lymphoma)
In short: as §1

HMV-II (Melanoma) = system: HMV-II (Melanoma)
In short: as §1

[14] = system: MHH-PREB-1 (B-Cell Non-Hodgkin's Lymphoma)
In short: as §1

[15] = system: KYSE-410 (Esophageal Squamous Cell Carcinoma)
In short: as §1

[16] = system: MDA-MB-468 (Breast Carcinoma)
In short: as §1

[17] = system: LU-139 (Small Cell Lung Carcinoma)
In short: as §1

CC1(C)CCC(CN2CCN(c3ccc(C(=O)NS(=O)(=O)c4ccc(NCC5CCOCC5)c([N+](=O)[O-])c4)c(Oc4cnc5[nH]ccc5c4)c3)CC2)=C(c2ccc(Cl)cc2)C1 [Venetoclax] + C1CN(CCC1(C(=O)N[C@@H](CCO)C2=CC=C(C=C2)Cl)N)C3=NC=NC4=C3C=CN4 [Capivasertib] (first compound max 1 µM, 7x7, partner max 3 µM)
combination Emax [1]: 0.161
combination Emax [2]: 0.177
combination Emax [3]: 0.316
combination Emax [4]: 0.719
combination Emax [5]: 0.184
combination Emax [6]: 0.0942
combination Emax [7]: 0.546
combination Emax [8]: 0.429
combination Emax [9]: 0.184
combination Emax [10]: 0.514
combination Emax (NCI-H28 (Mesothelioma)): 0.216
combination Emax (Mewo (Melanoma)): 0.533
combination Emax [11]: 0.564
combination Emax [12]: 0.248
combination Emax [13]: 0.796
combination Emax (HMV-II (Melanoma)): 0.236
combination Emax [14]: 0.176
combination Emax [15]: 0.203
combination Emax [16]: 0.511
combination Emax [17]: 0.31

CC1(C)CCC(CN2CCN(c3ccc(C(=O)NS(=O)(=O)c4ccc(NCC5CCOCC5)c([N+](=O)[O-])c4)c(Oc4cnc5[nH]ccc5c4)c3)CC2)=C(c2ccc(Cl)cc2)C1 [Venetoclax] + COc1cc(Nc2ncc3c(n2)-c2ccc(Cl)cc2C(c2c(F)cccc2OC)=NC3)ccc1C(=O)O [Alisertib] (first compound max 1 µM, 7x7, partner max 10 µM)
combination Emax [1]: 0.314
combination Emax [2]: 0.44
combination Emax [3]: 0.504
combination Emax [4]: 0.611
combination Emax [5]: 0.28
combination Emax [6]: 0.341
combination Emax [7]: 0.841
combination Emax [8]: 0.75
combination Emax [9]: 0.487
combination Emax [10]: 0.643
combination Emax (NCI-H28 (Mesothelioma)): 0.348
combination Emax (Mewo (Melanoma)): 0.416
combination Emax [11]: 0.194
combination Emax [12]: 0.697
combination Emax [13]: 1
combination Emax (HMV-II (Melanoma)): 0.363
combination Emax [14]: 0.199
combination Emax [15]: 0.361
combination Emax [16]: 0.748
combination Emax [17]: 0.738

Cc1c2c(nn1C)CSCc1cc(n(C)n1)CSc1cc(c3ccccc3c1)OCCCc1c(C(=O)O)n(C)c3c-2c(Cl)ccc13 [AZD5991] + CC1(C)CCC(CN2CCN(c3ccc(C(=O)NS(=O)(=O)c4ccc(NCC5CCOCC5)c([N+](=O)[O-])c4)c(Oc4cnc5[nH]ccc5c4)c3)CC2)=C(c2ccc(Cl)cc2)C1 [Venetoclax] (first compound max 1 µM, 7x7, partner max 1 µM)
combination Emax [1]: 0.205
combination Emax [2]: 0.231
combination Emax [3]: 0.147
combination Emax [4]: 0.358
combination Emax [5]: 0.138
combination Emax [6]: 0.145
combination Emax [7]: 0.183
combination Emax [8]: 0.17
combination Emax [9]: 0.189
combination Emax [10]: 1
combination Emax (NCI-H28 (Mesothelioma)): 0.185
combination Emax (Mewo (Melanoma)): 0.653
combination Emax [11]: 0.261
combination Emax [12]: 0.587
combination Emax [13]: 1
combination Emax (HMV-II (Melanoma)): 0.151
combination Emax [14]: 0.13
combination Emax [15]: 0.156
combination Emax [16]: 0.662
combination Emax [17]: 0.777

CN(CCO)CC[C@H](CSc1ccccc1)Nc1ccc(S(=O)(=O)NC(=O)c2ccc(N3CCC([C@@H](O)c4ccccc4-c4ccc(Cl)cc4)CC3)cc2)cc1S(=O)(=O)C(F)(F)F [AZD4320] + CCN(CCO)CCCOc1ccc2c(Nc3cc(CC(=O)Nc4cccc(F)c4)[nH]n3)ncnc2c1 [AZD2811] (first compound max 1 µM, 7x7, partner max 1 µM)
combination Emax [1]: 0.825
combination Emax [2]: 0.54
combination Emax [3]: 0.804
combination Emax [4]: 0.824
combination Emax [5]: 0.336
combination Emax [6]: 0.144
combination Emax [7]: 0.33
combination Emax [8]: 0.503
combination Emax [9]: 0.651
combination Emax [10]: 0.924
combination Emax (NCI-H28 (Mesothelioma)): 0.416
combination Emax (Mewo (Melanoma)): 0.303
combination Emax [11]: 0.0998
combination Emax [12]: 0.191
combination Emax [13]: 1
combination Emax (HMV-II (Melanoma)): 0.18
combination Emax [14]: 0.2
combination Emax [15]: 0.17
combination Emax [16]: 0.885
combination Emax [17]: 0.914

Cc1c2c(nn1C)CSCc1cc(n(C)n1)CSc1cc(c3ccccc3c1)OCCCc1c(C(=O)O)n(C)c3c-2c(Cl)ccc13 [AZD5991] + C[C@@H]1COCCN1C2=NC(=NC(=C2)C3(CC3)[S@](=N)(=O)C)C4=C5C=CNC5=NC=C4 [AZD6738] (first compound max 1 µM, 7x7, partner max 10 µM)
combination Emax [1]: 0.632
combination Emax [2]: 0.938
combination Emax [3]: 0.832
combination Emax [4]: 0.844
combination Emax [5]: 0.488
combination Emax [6]: 0.281
combination Emax [7]: 0.574
combination Emax [8]: 0.785
combination Emax [9]: 0.783
combination Emax [10]: 0.992
combination Emax (NCI-H28 (Mesothelioma)): 0.533
combination Emax (Mewo (Melanoma)): 0.59
combination Emax [11]: 0.773
combination Emax [12]: 0.806
combination Emax [13]: 1
combination Emax (HMV-II (Melanoma)): 0.424
combination Emax [14]: 0.729
combination Emax [15]: 0.403
combination Emax [16]: 0.768
combination Emax [17]: 0.446
